Experimental data reported in article PMC6504873, “High-throughput screening of the Plasmodium falciparum cGMP-dependent protein kinase identified a thiazole scaffold which kills erythrocytic and sexual stage parasites” (Scientific Reports, 2019).
In brackets after ≈: the same amount, converted by molar mass.

What was measured:
[1] = test system: HepG2 cells; experiment: Cytotoxicity assay (CellTiter-Glo); assay type: cell-based; details: Homo sapiens; HepG2 cytotoxicity; read-out: HepG2
Method: Cytotoxicity assays were performed on HepG2 cells as previously described. HepG2 cells were removed from a T-175 TC flask using 5 mL Eagle’s MEM (containing 10% FBS, 1% NEAA, 1% penicillin/streptomycin) and dispersed in the medium. Seeding density was checked to ensure that new mono-layers were not more than 50% confluent at the time of harvesting. Cells were added to 500 mL of the same medium at a final density of 1.2 × 10^5 cells/mL. They were then dispensed (25 μL, about 3,000 cells per well) into 384-well clear-bottom plates using a Multidrop Combi dispenser. Test compounds (250 nL) were dispensed into the plates with an EchoH liquid handler prior to addition of the cells. Plates were incubated for 48 h at 37 °C, 5% CO2. After incubation, plates were equilibrated at room temperature for 30 minutes before proceeding to develop the luminescent signal. The CellTiter-GloH Reagent was allowed to equilibrate at room temperature for 30 minutes and added to the plates (25 μL per well) using a Multidrop Combi dispenser. Plates were left for 10 minutes at room temperature for stabilization and then read using a Perkin Elmer ViewLux.

[2] = PFI; assay type: physicochemical
Method: Dose response assays were performed in duplicate on WT PfPKG, HuPKGIα and a mock assay performed in the absence of enzyme (the counterscreen). Comparison of the PfPKG and HuPKGIα IC50 values gave information on selectivity and the counterscreen identified luminescent false positive compounds (see Materials and Methods). Cytotoxicity assays were also performed using a human hepatoma cell line (HepG2)[30]. […] This set of compounds was clustered by similarity using a complete-linkage algorithm and a threshold of 0.55[31]. A total of 79 clusters and 54 singletons were obtained.

[3] = biological target: T1, TQ PfPKG (PfPKG_T618Q) (Plasmodium falciparum, UniProt Q8I719, T618Q); experiment: Kinase Glo enzymatic assay, gatekeeper mutant TQ PfPKG; assay type: biochemical, P. falciparum
T1 construct: His6 (N); host or cells: E. coli BL21
T1 sequence (Q8I719 whole entry T618Q): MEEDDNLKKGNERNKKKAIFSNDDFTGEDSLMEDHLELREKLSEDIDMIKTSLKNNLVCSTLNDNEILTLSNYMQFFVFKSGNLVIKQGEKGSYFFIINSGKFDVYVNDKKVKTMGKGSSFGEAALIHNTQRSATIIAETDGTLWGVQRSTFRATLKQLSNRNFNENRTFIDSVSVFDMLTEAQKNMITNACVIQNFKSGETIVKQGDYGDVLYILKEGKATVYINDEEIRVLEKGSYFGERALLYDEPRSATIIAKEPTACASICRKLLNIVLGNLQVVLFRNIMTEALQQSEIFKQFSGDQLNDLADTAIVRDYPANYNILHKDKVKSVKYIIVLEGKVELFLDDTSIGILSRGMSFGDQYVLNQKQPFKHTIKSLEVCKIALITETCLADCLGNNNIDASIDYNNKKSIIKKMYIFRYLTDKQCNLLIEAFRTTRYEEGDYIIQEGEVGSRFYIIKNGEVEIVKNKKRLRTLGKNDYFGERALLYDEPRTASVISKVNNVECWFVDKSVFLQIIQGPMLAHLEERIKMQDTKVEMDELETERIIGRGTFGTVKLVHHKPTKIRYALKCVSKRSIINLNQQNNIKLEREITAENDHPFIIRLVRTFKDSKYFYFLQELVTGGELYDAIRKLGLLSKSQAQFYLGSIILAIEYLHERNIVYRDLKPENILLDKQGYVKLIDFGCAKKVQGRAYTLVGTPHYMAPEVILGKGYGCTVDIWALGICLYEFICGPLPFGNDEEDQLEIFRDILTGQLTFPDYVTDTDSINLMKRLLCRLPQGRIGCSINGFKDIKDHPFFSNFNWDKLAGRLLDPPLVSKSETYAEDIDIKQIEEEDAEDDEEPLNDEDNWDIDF
Method: Taking advantage of the availability of more than 3,000 thiazole derivatives among the GSK compound collection, cluster 3 was thoroughly investigated for potent and selective inhibitors of WT PfPKG. […] We explored the binding mode by also testing compounds on the gatekeeper mutant enzyme TQ PfPKG. […] These two time points were chosen to give an indication of the speed of kill of the compounds. […] A preliminary safety test was performed on human AuroraB and LCK kinases which often underpin toxicity issues. […] Further assays for compound characterization included determination of solubility and cytotoxicity (HepG2 inhibition). Thiazoles have been previously identified as human BRaf inhibitors that are used to treat melanoma.
Protein production was outsourced to the Division of Signal Transduction Therapy, University of Dundee. Briefly, the pTRChis expression vectors (Invitrogen) containing an N-terminally His6-tagged PfPKG wildtype and T618Q were used to transform BL21 cells (protocol adapted from[23]). The cells were grown at 37 °C until the OD600 was 0.4–0.6 then the temperature was reduced to 15 °C and the cells were induced with 250 µM IPTG and grown for a further 16–18 hours before harvesting. The His6-PfPKG was purified on Cobalt agarose followed by gel filtration and the protein was dialysed into 25 mM Hepes pH 7.5, 0.1 mM EGTA, 150 mM NaCl, 50% glycerol and 2 mM DTT.
Initial optimization of the PKG assay was performed manually in 384-well plates and analysed with GraFit 7. The buffer for all assays was 25 mM HEPES pH 7.3 (GIBCO), 10 mM MgCl2 (Sigma), 2 mM DTT (Sigma), 0.01 mM cGMP (Sigma), 0.1 mg/ml BSA (Ambion). Enzymatic activity was tested using a luminescence-based kit (Promega KinaseGlo). Addition of the first reagent depletes the unused ATP and addition of the second reagent converts ADP (product of the kinase reaction) to ATP, which is then measured through a luciferin/luciferase reaction. The amount of luminescence is directly proportional to ATP turnover by the kinase. The kit was chosen because it can be miniaturized to small volumes (i.e. 4 µl) in 1536-well plates, for use in HTS.
We used PKA peptide substrate (SCP0212, Sigma-Aldrich) for WT and TQ PfPKG, dissolved in milliQ water at a final concentration of 5 mM, and Long S6 peptide substrate (produced at the University of Dundee, sequence […]) for HuPKGIα, dissolved in water at a final concentration of 30 mM.
We calculated the Michaelis-Menten (Km) constant for ATP and peptide substrate (PKA or Long S6) for all enzymes using GraphPad Prism (Supplementary Figs 2 and 3 and Supplementary Table 3). In order to identify different types of PKG inhibitors, including ATP competitive or non-competitive inhibitors, as well as inhibitors that bind to the peptide substrate pocket, we performed all assays using ATP and peptide substrate at a concentration equal to the Km. We also determined enzyme activity by calculating ATP turnover (Kcat) over the Km (Supplementary Table 3). The Kcat was calculated as (Vmax*slope)/[E] where Vmax is the maximum velocity and [E] is the concentration of the enzyme.
The plates containing the compounds were prepared at GSK in Upper Providence or Stevenage. Compounds were tested at a single final concentration of 10 µM or in a dose response with a range of concentrations starting from 100 μM to 1.6 nM (1 in 3 serial dilutions). Compounds were dispensed in the plates at the required concentration in a 40 nl volume. All plates (1536-well white Greiner) contained 40 nl of DMSO in lanes 11 and 12 (control 1, 100% enzyme activity) and were empty in lanes 35 and 36 (control 2, 0% enzyme activity). The plates were removed from −20 °C 1 hour before starting the assay. Using a Multidrop Combi dispenser (Thermo Scientific), 2 µl of the buffer containing ATP and the substrate were added to all wells then 2 µl of buffer only were added to column 35 and 36. […]

[4] = biological target: AuroraB (Homo sapiens, UniProt Q96GD4); experiment: Preliminary safety test on human AuroraB kinase; assay type: biochemical
Sequence of AuroraB (Q96GD4 whole entry): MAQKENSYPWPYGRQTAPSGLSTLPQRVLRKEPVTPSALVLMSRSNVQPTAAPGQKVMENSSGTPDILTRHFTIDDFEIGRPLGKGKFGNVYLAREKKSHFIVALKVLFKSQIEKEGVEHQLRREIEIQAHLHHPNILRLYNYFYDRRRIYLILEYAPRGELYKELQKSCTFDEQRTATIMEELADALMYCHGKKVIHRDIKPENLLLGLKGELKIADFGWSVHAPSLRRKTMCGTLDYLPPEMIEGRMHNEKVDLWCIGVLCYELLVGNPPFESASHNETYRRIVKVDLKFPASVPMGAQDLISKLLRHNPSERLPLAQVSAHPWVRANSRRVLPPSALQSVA
Method: (§1) We explored the binding mode by also testing compounds on the gatekeeper mutant enzyme TQ PfPKG. […] A preliminary safety test was performed on human AuroraB and LCK kinases which often underpin toxicity issues. […] Further assays for compound characterization included determination of solubility and cytotoxicity (HepG2 inhibition).

[5] = Aqueous kinetic solubility assay (CAD); assay type: physicochemical; details: several values in a cell = replicates
Method: […] of 10 mM DMSO compound solution is diluted to 100 μl with pH7.4 phosphate buffered saline, equilibrated for 1 hour at room temperature and filtered through Millipore MultiscreenHTS-PCF filter plates (MSSL BPC). The filtrate is quantified by suitably calibrated Charged Aerosol Detector[56].

[6] = biological target: LCK (Homo sapiens, UniProt P06239); experiment: Preliminary safety test on human LCK kinase; assay type: biochemical
Sequence of LCK (P06239 whole entry): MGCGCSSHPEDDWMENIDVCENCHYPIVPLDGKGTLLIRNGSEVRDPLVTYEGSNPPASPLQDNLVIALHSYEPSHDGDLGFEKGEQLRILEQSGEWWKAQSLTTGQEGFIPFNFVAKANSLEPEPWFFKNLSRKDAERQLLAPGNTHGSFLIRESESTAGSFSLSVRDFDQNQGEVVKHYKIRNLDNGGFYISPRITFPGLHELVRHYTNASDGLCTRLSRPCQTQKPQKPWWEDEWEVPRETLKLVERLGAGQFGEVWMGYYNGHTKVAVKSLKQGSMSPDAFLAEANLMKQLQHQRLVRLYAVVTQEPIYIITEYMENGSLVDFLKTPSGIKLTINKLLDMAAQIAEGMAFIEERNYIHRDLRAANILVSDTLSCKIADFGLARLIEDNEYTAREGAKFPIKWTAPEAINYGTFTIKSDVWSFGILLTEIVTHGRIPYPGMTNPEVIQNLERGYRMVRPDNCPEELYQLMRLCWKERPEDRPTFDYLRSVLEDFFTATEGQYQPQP
Method: as §1

[7] = biological target: PI3KD (Homo sapiens, UniProt O00329); experiment: Preliminary safety test on human PI3KD kinase; assay type: biochemical
Sequence of PI3KD (O00329 whole entry): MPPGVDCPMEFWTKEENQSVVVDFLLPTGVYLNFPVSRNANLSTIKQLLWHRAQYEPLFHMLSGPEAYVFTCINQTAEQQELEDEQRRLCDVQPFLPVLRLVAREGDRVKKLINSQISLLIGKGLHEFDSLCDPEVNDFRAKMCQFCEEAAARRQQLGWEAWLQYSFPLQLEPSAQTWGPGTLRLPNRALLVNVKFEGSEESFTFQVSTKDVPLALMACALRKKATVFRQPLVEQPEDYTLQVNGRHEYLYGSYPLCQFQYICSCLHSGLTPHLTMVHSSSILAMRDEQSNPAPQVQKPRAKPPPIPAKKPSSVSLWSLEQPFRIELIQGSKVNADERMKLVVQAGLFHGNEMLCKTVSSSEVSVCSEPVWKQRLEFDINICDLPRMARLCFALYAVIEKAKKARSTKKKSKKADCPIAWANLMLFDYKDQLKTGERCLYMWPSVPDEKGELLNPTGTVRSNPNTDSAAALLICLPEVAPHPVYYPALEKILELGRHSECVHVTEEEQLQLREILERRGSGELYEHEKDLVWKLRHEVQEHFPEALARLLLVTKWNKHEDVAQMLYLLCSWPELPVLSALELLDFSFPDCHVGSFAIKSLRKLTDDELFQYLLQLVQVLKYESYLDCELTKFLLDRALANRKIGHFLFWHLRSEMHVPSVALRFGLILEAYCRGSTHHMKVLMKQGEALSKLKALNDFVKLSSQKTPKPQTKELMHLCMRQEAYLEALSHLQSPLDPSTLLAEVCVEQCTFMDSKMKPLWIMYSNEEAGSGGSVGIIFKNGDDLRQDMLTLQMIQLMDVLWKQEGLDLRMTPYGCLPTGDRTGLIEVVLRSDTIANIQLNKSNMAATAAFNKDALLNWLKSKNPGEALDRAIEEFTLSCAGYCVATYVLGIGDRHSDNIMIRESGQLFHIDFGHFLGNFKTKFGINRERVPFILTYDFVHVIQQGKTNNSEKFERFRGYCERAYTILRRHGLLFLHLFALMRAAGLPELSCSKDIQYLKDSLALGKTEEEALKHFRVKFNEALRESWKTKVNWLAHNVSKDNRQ
Sequence of PI3KD (P27986 whole entry partner): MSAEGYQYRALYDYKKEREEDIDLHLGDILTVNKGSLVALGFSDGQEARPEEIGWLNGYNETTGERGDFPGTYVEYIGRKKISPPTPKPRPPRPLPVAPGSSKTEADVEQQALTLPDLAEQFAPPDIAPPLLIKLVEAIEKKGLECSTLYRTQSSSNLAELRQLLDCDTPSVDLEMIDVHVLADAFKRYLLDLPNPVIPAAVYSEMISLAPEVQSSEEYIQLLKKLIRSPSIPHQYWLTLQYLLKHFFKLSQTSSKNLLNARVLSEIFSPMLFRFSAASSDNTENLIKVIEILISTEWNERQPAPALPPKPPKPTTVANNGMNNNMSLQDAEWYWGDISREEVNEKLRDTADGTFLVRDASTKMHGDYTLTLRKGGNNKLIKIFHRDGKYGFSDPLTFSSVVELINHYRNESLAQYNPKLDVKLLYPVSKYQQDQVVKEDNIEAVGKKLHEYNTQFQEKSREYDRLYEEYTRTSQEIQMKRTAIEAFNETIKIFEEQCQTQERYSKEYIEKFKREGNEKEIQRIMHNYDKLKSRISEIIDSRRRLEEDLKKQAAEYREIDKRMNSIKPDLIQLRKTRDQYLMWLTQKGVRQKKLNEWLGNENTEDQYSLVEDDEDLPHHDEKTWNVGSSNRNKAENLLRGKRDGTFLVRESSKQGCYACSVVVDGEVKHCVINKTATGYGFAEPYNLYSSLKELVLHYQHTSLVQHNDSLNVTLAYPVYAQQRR

[8] = phosphate buffered saline, pH 7.4, aqueous buffer, kinetic from dmso stock

SMILES	IC50 [1] [µM]	PFI [2]	IC50 [3] [µM]	IC50 [4] [µM]	solubility at 1 h [5, 8] [µM]	IC50 [6] [µM]	IC50 [7] [µM]	solubility at 1 h [5] [µM]
CCn1cc(-c2ccncn2)c(-c2cccc(NS(=O)(=O)c3cc(F)ccc3F)c2)n1 [Compound 2]	> 100	8.0	> 100	> 31.6	412 (≈ 182 µg/mL)	7.9	> 50.1	–
Cc1ccc(S(C)(=O)=O)cc1Nc1nccc(-c2sc(CC(N)=O)nc2-c2ccccc2)n1 [Compound 3]	50.1	7.3	19.1	> 31.6	138 (≈ 66.2 µg/mL)	0.251	0.0794	124 (≈ 59.5 µg/mL)
CC(C)(CN)c1cc(-c2ccc(Cl)c(O)c2)c(-c2ccncc2)o1 [Compound 4]	12.6	6.1	36.7	> 31.6	252 (≈ 86.4 µg/mL)	0.126	> 50.1	–
CCn1c(-c2nonc2N)nc2c(-c3ccccc3)ncc(CN(C)C3CCN(C)CC3)c21 [Compound 5]	12.6	7.7	21.9	12.6	–	12.6	> 50.1	–
CNS(=O)(=O)c1cccc(Nc2ccnc(Nc3cccc(S(=O)(=O)NC)c3)n2)c1 [Compound 6]	25.1	6.4	0.188	0.0631	180 (≈ 80.7 µg/mL)	2	2.5	–
COc1ccc(-c2c(-c3cccc(C(=O)N4CCN(C)CC4)c3)oc3ncnc(N)c23)cc1 [Compound 7]	> 100	6.6	14.1	3.2	180 (≈ 79.8 µg/mL)	0.4	39.8	–
COc1ccc(CCNC(=O)CSc2ncnc3[nH]ncc23)cc1OC [Compound 8]	> 100	5.3	22.1	> 31.6	254 (≈ 94.9 µg/mL)	> 31.6	> 50.1	–
COc1cccc(Nc2nc(-c3ccncc3)cc(N3CCN(C)CC3)n2)c1 [Compound 9]	5	6.6	10	> 31.6	82 (≈ 30.9 µg/mL)	> 31.6	> 50.1	–
COc1cc(CS(C)(=O)=O)ccc1Nc1nc(Nc2cc(F)ccc2C(N)=O)c2cc[nH]c2n1 [Compound 10]	> 100	7.3	0.0248	> 31.6	–	> 31.6	> 50.1	–
O=C(N[C@@H](CO)c1ccccc1)c1ccc2cncc(-c3cn[nH]c3)c2n1 [Compound 11]	> 100	5.9	1	0.2	4 (≈ 1.44 µg/mL)	1	7.9	–
NCCNCc1ccc(-c2cc3ccncc3cc2OC2CCNCC2)s1 [Compound 12]	> 100	2.6	0.851	10	–	4	–	–
CNCCOc1cnc(-c2ccoc2C)c(-c2ccc3cnccc3c2)c1 [Compound 13]	63.1	6.1	1.3	> 31.6	418 (≈ 150 µg/mL)	1.3	> 50.1	–
O=C(c1cccc(OCc2cccnc2)c1)N1CCc2sccc2C1CN1CCCCC1 (centres unmarked) [Compound 14]	> 100	6.9	0.473	> 31.6	168 (≈ 75.2 µg/mL)	> 31.6	> 50.1	–
Nc1ccc2c(-c3ccncc3)c(-c3ccc(Cl)c(O)c3)[nH]c2n1 [Compound 15]	20	6.1	24	4	–	5	10	–
Nc1nc(Nc2cccc3cnccc23)nn1C(=O)C1CCCCC1 [Compound 16]	79.4	7.6	1.8	4	69 (≈ 23.2 µg/mL)	> 31.6	> 50.1	–
